The structures appear in SMILES notation. Where a name gives a salt, the structure may show the parent alone. Read-outs that look alike come from different tables or passages of the source.

The nature of data set [1]: Pharmacokinetic test in rats after intravenous and intragastric administration (plasma, LC-MS/MS). The class given is in vivo. To be noted: male, SD, rat; for AUC(0-inf): read-out: Curve area (o-inf) AUC0-inf; for AUC(0-t): read-out: Curve area (o-t) AUC0-last; for half-life: read-out: Half-life T½ (converted); for Tmax: read-out: Peak time Tmax; for Cmax: read-out: Plasma drug concentration Cmax; for bioavailability: read-out: Bioavailability F; for Vd: read-out: Apparent volume of distribution Vdss; for clearance: read-out: Clearance rate Cl. The protocol: Male SD rats were used as test animals, and LC-MS/MS method was used to determine the drug concentrations in plasma of rats at different times after intravenous and intragastric administration of test compounds. The pharmacokinetic behaviors of the compounds in rats were studied and the pharmacokinetic characteristics were evaluated.
2.2 Test animals: 28 healthy adult male SD rats were divided into 14 groups with 2 rats in each group. Animals were purchased from Beijing Vital River Laboratory Animal Technology Co., Ltd.
An appropriate amount of sample was weighed, and an appropriate amount of DMSO, polyoxyethylene castor oil and sterile water for injection were added in sequence according to the volume ratio of 10:10:80, then the mixture was stirred and sonicated to reach a clear state of 0.5 mg/mL for intravenous administration.
An appropriate amount of sample was weighed, and an appropriate amount of DMSO, polyoxyethylene castor oil and sterile water for injection were added in sequence according to the volume ratio of 10:10:80, then the mixture was stirred and sonicated to reach a clear or suspension state of 0.4 mg/mL for intragastric administration.
An appropriate amount of sample was weighed, and an appropriate amount of DMSO, polyoxyethylene castor oil and sterile water for injection were added in sequence according to the volume ratio of 10:10:80, then the mixture was stirred and sonicated to reach a clear state of 3 mg/mL for intravenous administration.
2.4 Administration: 28 male SD rats were divided into 14 groups, after fasting for one night, the intravenous administration group was administered with an administration volume of 2 mL/kg and a dose of 1 mg/kg; the intragastric administration group 1 was administered with an administration volume of 5 mL/kg and a dose of 2 mg/kg. The intragastric administration group 2 was administered with an administration volume of 10 mL/kg and a dose of 30 mg/kg.
After the compound was administered intravenously to male SD rats, 40 µL of blood was collected at 0.0833, 0.25, 0.5, 1, 2, 4, 8 and 24 hours, respectively, and placed in tubes containing 2 µL of EDTA-K2. After the compound was administered in the intragastric administration group, 40 µL of blood was collected at 0.25, 0.5, 1, 2, 4, 6, 10 and 24 hours, respectively, and placed in tubes containing 2 µL of EDTA-K2. The tubes were centrifuged at 4000 rpm for 15 minutes to separate the plasma, and stored at -60° C. Animals were allowed to eat 2 hours after administration.
LC-MS/MS method was used to determine the content of the test compounds in the plasma of rats after intravenous and intragastric administration. The linear range of the method was 2.00 - 6000 nmol/L; plasma samples were treated with acetonitrile to precipitate protein, and then analyzed.

Data set [2] addresses T1, recombinant human plasma kallikrein (Human PKal) (Homo sapiens, UniProt P03952).
T1 construct: Gly20-Ala638 derived from NS0- with a 60-His appendage at the C-terminus; His tag ('60-His' [sic]) (C); purchased R&D Systems 2497-SE; host or cells: mouse myeloma cell line NS0
The data set can be described thus: Inhibitory effect of test compounds on plasma kallikrein (PKal), fluorogenic substrate Z-FR-AMC. In kind it is biochemical. To be noted: 10 µM Z-FR-AMC, 10 min pre-incubation. As to the method: 1. PKal reaction buffer: 25 mM Tris-HCl (trometamol-HCl), pH 8.0, 100 mM NaCl, […], 0.01 % Brij35 (polyoxyethylene lauryl ether), and 1 % DMSO (final concentration).
2. Enzyme: PKal (R&D Systems Cat# 2497-SE), recombinant human plasma kallikrein expressed in a mouse myeloma cell line, Gly20-Ala638 derived from NS0- with a 60-His appendage at the C-terminus, MW=70 kDa. Activation of the enzyme: (1) rhPKal was diluted to 200 µg/mL activation buffer (100 mM Tris, 10 mM CaCl2, 150 mM NaCl, pH 7.5 (TCN)); (2) thermolysin was diluted to 20 µg/mL activation buffer; (3) rhPKal (200 µg/mL) and thermolysin (20 µg/mL) were mixed in equal volumes; (4) the mixture was incubated at 37° C. for 30 min; (5) then the reactions was stopped with 50 µM EDTA (ethylenediaminetetraacetic acid).
3. Substrate (Enzo Cat# P-139): 10 µM Z-FR-AMC (AMC: 7-amino-4-methylcoumarin).
4. Detection: EnVision (PE), Ex/Em 355/460 nm.
5. Reaction process: (1) The specified enzymes and substrates were prepared in freshly prepared activation buffer; (2) the enzyme solution was injected into the reaction hole; (3) the DMSO solution of the test compound was injected into the reaction mixture, and controlled within the nanoliter range using acoustic technology (Echo 550, LabCyte Inc. Sunnyvale, CA); (4) after 10 min of pre-incubation, the substrate solution was injected into the reaction hole to start the reaction; (5) the activity of the enzyme could be indicated by the increase of the fluorescence signal of the fluorescent labeled peptide substrate, which was monitored every 5 min and lasted for 120 min at room temperature; (6) data analysis: the slope* (fluorescence signal/time) of the straight line was measured, then the slope could be calculated by excel and the curve could be fitted by Prism software.

Setting [3] is: po, intragastric administration (group 1), nominal 2 mg/kg (actual dose in c2).
[4] abbreviates: intravenous administration, nominal 1 mg/kg (actual dose in c2).
Where [5] appears, read: po, intragastric administration (group 2), nominal 30 mg/kg (actual dose in c2).

T1 sequence (P03952 20-638): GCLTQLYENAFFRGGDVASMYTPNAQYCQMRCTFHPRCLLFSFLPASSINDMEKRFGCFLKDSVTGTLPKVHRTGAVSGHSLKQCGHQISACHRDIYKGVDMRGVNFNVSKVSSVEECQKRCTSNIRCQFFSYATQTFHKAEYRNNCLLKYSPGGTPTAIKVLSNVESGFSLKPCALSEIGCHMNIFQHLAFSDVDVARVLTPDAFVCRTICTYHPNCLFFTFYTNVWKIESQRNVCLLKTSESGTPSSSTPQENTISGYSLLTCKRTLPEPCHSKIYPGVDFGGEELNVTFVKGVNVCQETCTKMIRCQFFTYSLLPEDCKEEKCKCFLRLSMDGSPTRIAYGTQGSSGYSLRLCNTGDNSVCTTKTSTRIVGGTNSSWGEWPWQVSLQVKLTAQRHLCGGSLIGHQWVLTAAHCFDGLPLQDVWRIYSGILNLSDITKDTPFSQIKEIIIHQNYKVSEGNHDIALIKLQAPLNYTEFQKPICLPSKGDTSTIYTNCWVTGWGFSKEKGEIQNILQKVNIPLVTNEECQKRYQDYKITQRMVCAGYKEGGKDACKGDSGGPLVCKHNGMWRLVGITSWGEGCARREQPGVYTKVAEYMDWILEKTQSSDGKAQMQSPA

A word on the half-life: it is the time needed for the level to fall by half in the phase considered. What is called Tmax is the time from dosing to the highest level. As usually defined, the IC50 is the concentration at which inhibition is half-maximal. In the case of `COc1ccnc(CNC(=O)c2cn(Cc3ccc(Cn4ccccc4=O)cc3)nc2C2COC2)c1F` [Compound 17], in data set [1] (setting [3]), the AUC(0-inf) came out at 0.246 µM·h, the AUC(0-t) was determined as 0.237 µM·h, the half-life is 50.8 min and the Tmax is 30 min. Moreover, in data set [1] (setting [3]), the Cmax stood at 230 nM. Moreover, the IC50 in data set [2] was found to be 0.053 nM.

In the case of `COc1ccnc(CNC(=O)c2cn(Cc3ccc(Cn4cc(F)ccc4=O)cc3)nc2C2(C)COC2)c1F` [Compound 9], in data set [2], the IC50 stood at 1.03 nM.

Turning to `COc1ccnc(CNC(=O)c2cn(Cc3ccc(Cn4cc(F)ccc4=O)c(F)c3)nc2C2COC2)c1F` [Hydrochloride of compound 18], the IC50 in data set [2] stood at 2.31 nM.

As for `COc1ccc(F)c(CNC(=O)c2cn(Cc3ccc(Cn4ccccc4=O)cc3)nc2C2CNC2)c1F` [Hydrochloride of compound 11], in data set [2], the concentration for half-maximal inhibition (IC50) is 0.269 nM.

What is called bioavailability is the share of a dose that reaches the circulation, judged against a reference dose that is usually intravenous. As usually defined, the clearance is the rate of elimination divided by the concentration. For `COc1ccc(F)c(CNC(=O)c2cn(Cc3ccc(Cn4ccccc4=O)cc3)nc2C2COC2)c1F` [Compound 16], in data set [1] (setting [3]), the bioavailability turned out to be 22.1%, the AUC(0-inf) came to 1.94 µM·h, the AUC(0-t) amounted to 1.93 µM·h and the half-life was 136 min. Besides, in data set [1] (setting [3]), the Tmax came to 45 min and the Cmax is 1140 nM. For the same molecule, in data set [1] (setting [4]), the Vd is 0.2 L/kg, the clearance is 7.3 mL/min/kg, the AUC(0-inf) worked out at 4.39 µM·h and the AUC(0-t) turned out to be 4.37 µM·h. Further, the half-life in data set [1] (setting [4]) was 35.8 min. For the same molecule, the IC50 in data set [2] worked out at 0.62 nM.

Consider `COc1ccc(Cl)c(CNC(=O)c2cn(Cc3ccc(Cn4cc(F)ccc4=O)cc3)nc2C2COC2)c1F` [Compound 3], for which, in data set [1] (setting [3]), the bioavailability was 19.3%, the AUC(0-inf) came out at 2.12 µM·h, the AUC(0-t) is 2.11 µM·h and the half-life is 82.2 min. In data set [1] (setting [3]), the time of peak concentration (Tmax) was determined as 30 min and the Cmax was found to be 1760 nM. In data set [1] (setting [4]), the Vd came out at 0.169 L/kg, the clearance was determined as 7.85 mL/min/kg, the AUC(0-inf) stood at 5.5 µM·h and the AUC(0-t) worked out at 5.49 µM·h. Further, the half-life in data set [1] (setting [4]) was 42.8 min. Besides, the IC50 in data set [2] was determined as 0.264 nM.

Regarding `COc1ccc(F)c(CNC(=O)c2cn(Cc3ccc(Cn4ccccc4=O)cc3)nc2C2CN(C)C2)c1F` [Hydrochloride of compound 12], the IC50 in data set [2] came out at 1.08 nM.

`COc1ccc(F)c(CNC(=O)c2cn(Cc3ccc(Cn4cc(F)ccc4=O)nc3)nc2C2COC2)c1F` [Compound 6]: in data set [1] (setting [3]), the AUC(0-inf) amounted to 0.661 µM·h, the AUC(0-t) is 0.653 µM·h, the half-life is 140 min and the Tmax is 22.2 min. Also, in data set [1] (setting [3]), the Cmax came to 650 nM. Besides, the IC50 in data set [2] turned out to be 2.63 nM.

For the molecule `COc1ccc(F)c(CNC(=O)c2cn(Cc3ccc(Cn4ccccc4=O)cn3)nc2C2COC2)c1F` [Compound 5], the IC50 in data set [2] came out at 18.7 nM.

`COc1ccnc(CNC(=O)c2cn(Cc3ccc(Cn4cc(F)ccc4=O)cc3)nc2C2CN(CC(F)(F)F)C2)c1F` [Compound 15]: the 50% inhibitory concentration (IC50) in data set [2] came to 2.24 nM.

With `COc1ccc(F)c(CNC(=O)c2cn(Cc3ccc(Cn4ccccc4=O)cc3)nc2C2CN(S(C)(=O)=O)C2)c1F` [Compound 14], the half-inhibitory concentration (IC50) in data set [2] was 0.717 nM.

For the molecule `COc1ccnc(CNC(=O)c2cn(Cc3ccc(Cn4cc(F)ccc4=O)cc3)nc2C2COC2)c1F` [Compound 2], in data set [1] (setting [3]), the AUC(0-inf) was determined as 0.246 µM·h, the AUC(0-t) is 0.241 µM·h, the half-life was 26.2 min and the time to peak (Tmax) was found to be 15 min. Besides, in data set [1] (setting [3]), the Cmax came to 301 nM. In addition, the IC50 in data set [2] came out at 1.53 nM.

Regarding `COc1ccc(F)c(CNC(=O)c2cn(Cc3ccc(Cn4ccccc4=O)cc3)nc2C2CN(C(C)=O)C2)c1F` [Compound 13], the IC50 in data set [2] stood at 0.833 nM.

As to `COc1ccc(F)c(CNC(=O)c2cn(Cc3ccc(Cn4cc(F)ccc4=O)cc3)nc2C2(C)COC2)c1F` [Compound 10], the IC50 in data set [2] was 0.344 nM.

For `COc1ccc(Cl)c(CNC(=O)c2cn(Cc3ccc(Cn4ccccc4=O)cc3)nc2C2COC2)c1F` [Compound 4], in data set [1] (setting [3]), the bioavailability worked out at 22.7%, the AUC(0-inf) amounted to 1.8 µM·h, the AUC(0-t) is 1.79 µM·h and the half-life is 76.8 min. Moreover, in data set [1] (setting [3]), the time of peak concentration (Tmax) worked out at 22.2 min and the Cmax turned out to be 1550 nM. Besides, in data set [1] (setting [4]), the Vd was determined as 0.182 L/kg, the clearance was found to be 8.26 mL/min/kg, the AUC(0-inf) came to 3.95 µM·h and the AUC(0-t) was 3.94 µM·h. In data set [1] (setting [4]), the half-life was 36.3 min. In addition, the 50% inhibitory concentration (IC50) in data set [2] was 0.052 nM.

For the molecule `COc1ccc(F)c(CNC(=O)c2cn(Cc3ccc(Cn4ccccc4=O)c(F)c3)nc2C2COC2)c1F` [Compound 7], in data set [1] (setting [5]), the AUC(0-inf) amounted to 1.93 µM·h, the AUC(0-t) stood at 1.84 µM·h, the half-life is 157 min and the Tmax is 30 min. The Cmax in data set [1] (setting [5]) stood at 813 nM. In data set [2], the IC50 came out at 0.552 nM.

(Values after US11814371B2, “Heterocyclic compound” (MEDSHINE DISCOVERY INC., priority 2020, dated 2023).)
